From ChEMBL document CHEMBL4270599, “Synthesis of a 3'-C-ethynyl-β-d-ribofuranose purine nucleoside library: Discovery of C7-deazapurine analogs as potent antiproliferative nucleosides” (Eur J Med Chem, 2018)

Legend:
Assay type in all cases: functional
[1] = tested on: A549; assay: Growth inhibition of human A549/ATCC cells assessed as cell growth at 10^-6 M incubated for 48 hrs by sulforhodamine B assay relative to control; conditions: A549, 48 h, read-out: Activity
[2] = tested on: SK-MEL-5; assay: Growth inhibition of human SK-MEL-5 cells assessed as cell growth at 10^-7 M incubated for 48 hrs by sulforhodamine B assay relative to control; conditions: SK-MEL-5, 48 h, read-out: Activity
[3] = tested on: UACC-62; assay: Growth inhibition of human UACC62 cells assessed as cell growth at 10^-5 M incubated for 48 hrs by sulforhodamine B assay relative to control; conditions: UACC-62, 48 h, read-out: Activity
[4] = tested on: MOLT-4; assay: Growth inhibition of human MOLT4 cells assessed as cell growth at 10^-6 M incubated for 48 hrs by sulforhodamine B assay relative to control; conditions: MOLT-4, 48 h, read-out: Activity
[5] = tested on: HL-60(TB); assay: Cytotoxicity against human HL-60(TB) cells after 48 hrs by SRB assay; conditions: HL-60, 48 h
[6] = tested on: UACC-62; assay: Growth inhibition of human UACC62 cells assessed as cell growth at 10^-8 M incubated for 48 hrs by sulforhodamine B assay relative to control; conditions: UACC-62, 48 h, read-out: Activity
[7] = tested on: T47D; assay: Cytotoxicity against human T47D cells after 48 hrs by SRB assay
[8] = tested on: LOX IMVI; assay: Cytotoxicity against human LOXIMVI cells after 48 hrs by SRB assay
[9] = tested on: MDA-MB-231; assay: Growth inhibition of human MDA-MB-231 cells assessed as cell growth at 10^-4 M incubated for 48 hrs by sulforhodamine B assay relative to control; conditions: MDA-MB-231, 48 h, read-out: Activity
[10] = tested on: IGROV-1; assay: Cytotoxicity against human IGROV1 cells after 48 hrs by SRB assay; conditions: IGROV-1, 48 h
[11] = tested on: NCI-H522; assay: Growth inhibition of human NCI-H522 cells assessed as cell growth at 10^-8 M incubated for 48 hrs by sulforhodamine B assay relative to control; conditions: NCI-H522, 48 h, read-out: Activity
[12] = tested on: SNB-75; assay: Growth inhibition of human SNB75 cells assessed as cell growth at 10^-6 M incubated for 48 hrs by sulforhodamine B assay relative to control; conditions: SNB-75, 48 h, read-out: Activity
[13] = tested on: U-251; assay: Growth inhibition of human U251 cells assessed as cell growth at 10^-6 M incubated for 48 hrs by sulforhodamine B assay relative to control; conditions: U-251, 48 h, read-out: Activity
[14] = tested on: MDA-MB-435; assay: Growth inhibition of human MDA-MB-435 cells assessed as cell growth at 10^-5 M incubated for 48 hrs by sulforhodamine B assay relative to control; conditions: MDA-MB-435, 48 h, read-out: Activity
[15] = tested on: UACC-257; assay: Cytotoxicity against human UACC257 cells after 48 hrs by SRB assay; conditions: UACC-257, 48 h
[16] = tested on: SK-OV-3; assay: Growth inhibition of human SKOV3 cells assessed as cell growth at 10^-4 M incubated for 48 hrs by sulforhodamine B assay relative to control; conditions: SK-OV-3, 48 h, read-out: Activity
[17] = tested on: MDA-MB-435; assay: Growth inhibition of human MDA-MB-435 cells assessed as cell growth at 10^-7 M incubated for 48 hrs by sulforhodamine B assay relative to control; conditions: MDA-MB-435, 48 h, read-out: Activity
[18] = tested on: CCRF-CEM; assay: Growth inhibition of human CCRF-CEM cells assessed as cell growth at 10^-5 M incubated for 48 hrs by sulforhodamine B assay relative to control; conditions: read-out: Activity
[19] = tested on: SF-268; assay: Cytotoxicity against human SF268 cells after 48 hrs by SRB assay; conditions: SF-268, 48 h
[20] = tested on: NCI-H522; assay: Cytotoxicity against human NCI-H522 cells after 48 hrs by SRB assay; conditions: NCI-H522, 48 h
[21] = tested on: CCRF-CEM; assay: Growth inhibition of human CCRF-CEM cells assessed as cell growth at 10^-8 M incubated for 48 hrs by sulforhodamine B assay relative to control; conditions: read-out: Activity
[22] = tested on: ACHN; assay: Growth inhibition of human ACHN cells assessed as cell growth at 10^-6 M incubated for 48 hrs by sulforhodamine B assay relative to control; conditions: read-out: Activity
[23] = tested on: A549; assay: Cytotoxicity against human A549 cells after 48 hrs by SRB assay; conditions: A549, 48 h
[24] = tested on: SNB-19; assay: Growth inhibition of human SNB19 cells assessed as cell growth at 10^-8 M incubated for 48 hrs by sulforhodamine B assay relative to control; conditions: SNB-19, 48 h, read-out: Activity
[25] = tested on: OVCAR-4; assay: Growth inhibition of human OVCAR4 cells assessed as cell growth at 10^-8 M incubated for 48 hrs by sulforhodamine B assay relative to control; conditions: OVCAR-4, 48 h, read-out: Activity
[26] = tested on: A498; assay: Growth inhibition of human A498 cells assessed as cell growth at 10^-7 M incubated for 48 hrs by sulforhodamine B assay relative to control; conditions: A498, 48 h, read-out: Activity
[27] = tested on: RPMI-8226; assay: Growth inhibition of human RPMI8226 cells assessed as cell growth at 10^-7 M incubated for 48 hrs by sulforhodamine B assay relative to control; conditions: RPMI-8226, 48 h, read-out: Activity
[28] = tested on: SN12C; assay: Growth inhibition of human SN12C cells assessed as cell growth at 10^-5 M incubated for 48 hrs by sulforhodamine B assay relative to control; conditions: read-out: Activity
[29] = tested on: HCT-116; assay: Growth inhibition of human HCT116 cells assessed as cell growth at 10^-4 M incubated for 48 hrs by sulforhodamine B assay relative to control; conditions: HCT-116, 48 h, read-out: Activity
[30] = tested on: Malme-3M; assay: Growth inhibition of human MALME-3M cells assessed as cell growth at 10^-6 M incubated for 48 hrs by sulforhodamine B assay relative to control; conditions: read-out: Activity
[31] = tested on: NCI-H460; assay: Growth inhibition of human NCI-H460 cells assessed as cell growth at 10^-6 M incubated for 48 hrs by sulforhodamine B assay relative to control; conditions: NCI-H460, 48 h, read-out: Activity
[32] = tested on: HL-60(TB); assay: Growth inhibition of human HL-60(TB) cells assessed as cell growth at 10^-7 M incubated for 48 hrs by sulforhodamine B assay relative to control; conditions: HL-60, 48 h, read-out: Activity
[33] = read-out: pLC50 (the source's name) (converted)
[34] = read-out: LC50 (the source's name)

## C#C[C@@]1(O)[C@@H](CO)O[C@@H](n2cc(F)c3c(N)ncnc32)[C@@H]1O
[1]
  growth at 1 µM: 19%
[2]
  growth at 0.1 µM: 78%
[3]
  growth at 10 µM: -60%
[4]
  growth at 1 µM: 11%
[5]; read-out: TGI
  TGI: 3.53 µM
[5]; read-out: pGI50 (converted)
  GI50: 0.437 µM
[5]; [33]
  CC50: > 100 µM
[5]; read-out: pTGI (converted)
  TGI: 3.55 µM
[6]
  growth at 0.01 µM: 94%
[7]; read-out: TGI
  TGI: 0.77 µM
[7]; read-out: pGI50 (converted)
  GI50: 0.214 µM
[7]; [33]
  CC50: 20 µM
[7]; read-out: pTGI (converted)
  TGI: 0.776 µM
[8]; read-out: TGI
  TGI: 1.11 µM
[8]; read-out: pGI50 (converted)
  GI50: 0.282 µM
[8]; [33]
  CC50: 4.57 µM
[8]; read-out: pTGI (converted)
  TGI: 1.12 µM
[9]
  growth at 100 µM: -35%
[10]; [34]
  CC50: > 100 µM
[10]; read-out: TGI
  TGI: 1.42 µM
[10]; read-out: pGI50 (converted)
  GI50: 0.324 µM
[10]; read-out: pTGI (converted)
  TGI: 1.41 µM
[11]
  growth at 0.01 µM: 84%
[12]
  growth at 1 µM: 52%
[13]
  growth at 1 µM: 38%
[14]
  growth at 10 µM: -26%
[15]; [34]
  CC50: > 100 µM
[15]; read-out: TGI
  TGI: 4.64 µM
[15]; read-out: pGI50 (converted)
  GI50: 0.49 µM
[15]; read-out: pTGI (converted)
  TGI: 4.68 µM
[16]
  growth at 100 µM: -30%
[17]
  growth at 0.1 µM: 86%
[18]
  growth at 10 µM: 5%
[19]; [34]
  CC50: > 100 µM
[19]; read-out: TGI
  TGI: 78.3 µM
[19]; read-out: pGI50 (converted)
  GI50: 0.759 µM
[19]; read-out: pTGI (converted)
  TGI: 77.6 µM
[20]; read-out: GI50
  GI50: 0.18 µM
[20]; [34]
  CC50: > 100 µM
[20]; read-out: TGI
  TGI: 0.929 µM
[20]; read-out: pGI50 (converted)
  GI50: 0.178 µM
[20]; read-out: pTGI (converted)
  TGI: 0.933 µM
[21]
  growth at 0.01 µM: 95%
[22]
  growth at 1 µM: 9%
[23]; read-out: TGI
  TGI: 2.64 µM
[23]; read-out: pGI50 (converted)
  GI50: 0.38 µM
[23]; [33]
  CC50: > 100 µM
[23]; read-out: pTGI (converted)
  TGI: 2.63 µM
[24]
  growth at 0.01 µM: 93%
[25]
  growth at 0.01 µM: 100%
[26]
  growth at 0.1 µM: 95%
[27]
  growth at 0.1 µM: 76%
[28]
  growth at 10 µM: -8%
[29]
  growth at 100 µM: 1%
[30]
  growth at 1 µM: 12%
[31]
  growth at 1 µM: 5%
[32]
  growth at 0.1 µM: 103%
